From patent publication US20100215653A1, “METHODS OF TREATING NEOPLASTIC, AUTOIMMUNE AND INFLAMMATORY DISEASES” (Seattle Genetics, Inc., priority 2006, published 2010)
“Also recorded” adds a separate entry of the source. Like-named read-outs stand apart in the source and are kept apart here.

Key:
[1] = tested on: primary human macrophages; assay: Macrophage migration in response to chemoattractants (CytoSelect Cell Migration Assay); assay type: cell-based
Procedure: The migration of macrophages in response to challenge with plating media containing 10% human serum, 20% conditioned tumor cell media, or 50 ng/ml TGF-β, VEGF, TNF-α, or IFN-γ was evaluated using the CytoSelect Cell Migration Assay (Cell Biolabs, San Diego, Calif.). […] The study was stopped 18 hours later and migration was evaluated after dissociation of the cells from the membrane followed by detection with Cyquant GR dye.
The migration of macrophages in response to challenge with plating media containing 10% human serum or 20% conditioned tumor cell media was evaluated using the CytoSelect Cell Migration Assay (Cell Biolabs, San Diego, Calif.). […] The studies were stopped 18 h later and migration was evaluated after dissociation of the cells from the membrane followed by detection with Cyquant GR dye.

[2] = tested on: KG-1 AML cell line; assay: Cytokine production by KG-1 AML cell line after TNF-alpha; assay type: cell-based, human; settings: 2.5 μg/ml pre-treatment, then 1 ng/ml TNF-alpha, 18 h
Procedure: Media was harvested 18 h later for cytokine analyses.

[3] = tested on: relapsed and refractory acute myeloid leukemia (AML); settings: low dose, infrequent administration; cited from earlier work
[4] = tested on: primary human macrophages; assay: Cell viability (CelltiterGlo) of primary human macrophages; assay type: cell-based; settings: 24 to 72 hours of exposure to increasing concentrations (FIG. 8)
Procedure: Macrophages were harvested, counted, and cultured in 96-well plates at 35,000 cells per well. G-CSF-mobilized CD14^+ monocytes (Cambrex) were cultured in 96-well plates at 100,000 cells per well (adherent cells) in sterile polypropylene dishes (non-adherent cells).

[5] = tested on: AML tumor cells; assay: ADCP, phagocytosis by monocyte-derived macrophages (flow cytometry); assay type: cell-based, human; settings: MDR-positive and MDR-negative AML cells (FIG. 27B)
Procedure: (§1) Target AML tumor cells (KG-1 HEL9217, and TF1α) were labeled with Na^51CrO4 and mixed with enriched CD16^+ effector (NK) cells, prepared using PBMCs from normal donors. The effector to target cell ratio was 10:1. […] Macrophages were labeled with CD11b−FITC or CD14-FITC antibody. Flow cytometric analyses of dual labeled (PKH67+CD11b+ or PKH67+CD14+) cells was used to determine specific uptake (phagocytosis). […] Media were collected 18 h later and analyzed by ELISA for IL-8 or MCP-1.

[6] = tested on: HL-60 cells; assay: HL-60 disseminated AML model in mice; assay type: in vivo
Procedure: Mice were implanted with an AML cell line, HL-60, as follows: 5 million HL-60 cells were injected intravenously. The mice were treated with lintuzumab (10 mg/kg, q4dx4, ip), cytarabine (1 mg/kg, 5 mg/kg or 25 mg/kg, q1dx10, ip; or 50 mg/kg or 100 mg/kg, q2dx5, ip) or lintuzumab with cytarabine (dosed as described previously). Treatment began on day one. Referring to FIG. 22, the control mice or mice treated with placebo (0.9% saline) were removed from the study by day 80, due to tumor progression.
To confirm the data of the in vitro study, mice were implanted with an AML cell line, HL-60, as follows: 5 million HL-60 cells were injected intravenously. […] Treatment began on day one. Referring to FIG. 24, the control mice were removed from the study by about day 60 due to tumor progression. Mice treated with lenalidomide were removed from study by about day 90 for similar reasons.
(§2) The MDR-negative HL60 cell line and the MDR-positive HEL9217 and TF1-α cell lines were used. […] Disease symptoms typically developed between about 35 and about 80 days, and included hind limb paralysis, scruffy coat, weight loss, palpable tumors, and/or tumor masses in bone, peritoneal cavity, or soft tissues. Human CD33+ tumor cells were detected in the blood, bone marrow, and lymph nodes of the majority of the mice by flow cytometry (FIG. 25). Solid tumors associated with bone or soft tissues were found in 20 to 60% of the mice.

[7] = tested on: human CD14+ monocytes; assay: Cytokine, chemokine and growth factor production by human CD14+ monocytes; assay type: cell-based
Procedure: Tissue culture media was harvested 18 h later for cytokine analyses by ELISA or Searchlight (Pierce Endogen, Rockville, Ill.).

[8] = tested on: advanced myeloid malignancies; assay: Phase I single-arm dose escalation trial; assay type: in vivo, human
Procedure: Entry criteria included CD33 expression on >50% of the marrow blasts to ensure that adequate target antigen was present. […] Clinical response was assessed by bone marrow morphology and hematologic improvement. […] Among AML patients, 6 had antecedent hematologic disorder. Dosing cohorts included 1.5 (6), 2.5 (4), 4 (4), and 8 mg/kg (17).

[9] = tested on: AML tumor cell lines; assay: IL-8 / MCP-1 production by AML tumor cell lines after TNF-α (ELISA); assay type: cell-based, human; settings: 10 μg/ml SGN-33 before 1 ng/ml TNF-α; 18 h; p<0.05, p<0.01 (FIG. 27C)
Procedure: as §1

[10] = tested on: HEL9217 cells; assay: HEL9217 disseminated MDR-positive AML model in SCID mice; assay type: in vivo
Text: as §2

[11] = tested on: TF1-α cells; assay: TF1-α disseminated MDR-positive AML model in SCID mice; assay type: in vivo
Text: as §2

[12] = target: CD33 (Homo sapiens, UniProt P20138); assay: Apparent Kd by saturation binding using flow cytometry; parameters: endogenous in cells; host or cells: HL60, KG-1, HEL9217, TF1-α
Procedure: As a preliminary step, the AML cell lines HL60, KG-1, HEL9217 and TF1-α were assessed for multi-drug resistance (MDR) status and CD33 copy number. MDR status was determined by flow cytometry assessment of Rhodamine (Rh123) efflux at 37° C. […] CD33 copy number was determined by qFACs (DAKO QifiKit) and apparent Kd values by saturation binding measurements using flow cytometry.

Sequence of CD33 (P20138 18-364): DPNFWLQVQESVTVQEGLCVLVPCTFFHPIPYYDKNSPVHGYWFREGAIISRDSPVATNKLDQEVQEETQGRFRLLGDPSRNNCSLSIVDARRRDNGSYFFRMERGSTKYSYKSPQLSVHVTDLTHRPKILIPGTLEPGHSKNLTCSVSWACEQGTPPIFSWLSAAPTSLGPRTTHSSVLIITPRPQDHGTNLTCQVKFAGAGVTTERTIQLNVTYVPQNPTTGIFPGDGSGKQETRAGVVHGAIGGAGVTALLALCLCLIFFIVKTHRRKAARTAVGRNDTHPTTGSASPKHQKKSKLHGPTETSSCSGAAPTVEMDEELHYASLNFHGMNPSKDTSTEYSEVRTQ

SGN-33: anti-CD33 antibody, a humanized version of mouse monoclonal antibody M195
macrophage migration ([1]; 10% human serum or 20% conditioned media from RPMI 8226 cells, p<0.05 (FIG. 21)): significantly reduced the migration | blocking of migration of neuraminidase-treated macrophages ([1]; SGN-33 added to neuraminidase-treated macrophages, serum or tumor cell conditioned media (FIG. 14C)): greater blocking effect | production of IL-8, IP-10, MIP1β, RANTES and MCP-1 [2]: reduced the production of IL-8, IP-10, MIP1β, RANTES, and MCP-1 | blast cells in patients [3]: induced significant reductions in blast cells | cell viability of macrophages [4]: not due to an adverse effect; also recorded: does not affect the viability | ADCP activity (phagocytosis) [5]: antibody-dependent cell phagocytosis of MDR-positive and MDR-negative AML cells; also recorded: mediate phagocytosis of AML tumor cells | survival ([6]; HL60 model, SCID mice, q4dx4, p<0.005 (FIG. 26)): > 100 days | increase of survival ([6]; MDR-negative HL60 model, 3 to 30 mg/kg, p<0.0001): > 100 days | survival rate ([6]; SGN-33 30 mg/kg q4dx5 ip (FIG. 24)): ~85% | survival rate ([6]; SGN-33 3 or 10 mg/kg q4dx5 ip (FIG. 24)): ~50% | basal and IFN-γ stimulated levels of IL-6, MCP-1, TNF-α, IL-8; IFN-γ stimulated level of RANTES ([7]; adherent CD14+ monocytes, 48 h (FIG. 10)): reduced the basal levels and IFN-γ stimulated levels | basal and conditioned media stimulated levels of IL-6, MCP-1, IL-8; conditioned media stimulated level of RANTES ([7]; adherent CD14+ monocytes, RPMI-8228 conditioned media (FIG. 11)): reduced the basal levels and the RPMI-8228 conditioned media stimulated levels | level of TNF-α ([7]; adherent CD14+ monocytes, basal and RPMI-8228 conditioned media stimulated (FIG. 11)): reduced the basal level, but not the RPMI-8228 conditioned media stimulated level | levels of IL-6, IL-8, TNF-α and MCP-1 ([7]; non-adherent CD14+ monocytes exposed to SGN-33 (FIG. 12)): small increases | production of cytokines, chemokines and growth factors ([7]; non-adherent CD14+ monocytes, IFN-γ (FIG. 12)): not inhibited by SGN-33, except for the basal level of RANTES | IFN-γ-stimulated production of IL-1β, IL-10, IL-12 and MIP-1α ([7]; primary human monocytes treated 1 hr before IFN-γ, 18 h, p<0.001 (FIG. 19)): significantly reduced | levels of TNF-α ([7]; primary human monocytes, various doses 1 hr before IFN-γ, 18 h, p<0.05 (FIG. 20)): significantly reduced levels of TNF-α in a dose-dependent manner | Grade 4 adverse events considered related to antibody ([8]; 31 patients): none | patients achieving CR ([8]; among 18 patients with AML): 4 | patients achieving CR with incomplete platelet recovery ([8]; among 18 patients with AML): 1 | accumulation ([8]; repeat dosing): documented with repeat dosing | dose limiting toxicity ([8]; weekly iv 1.5 to 8 mg/kg for 5 weeks, 31 patients): has not been observed | production of cytokines (IL-8 or MCP-1) [9]: reduced cytokine production; also recorded: significantly reduced the production of cytokines | survival ([10]; HEL9217 model, SCID mice, q4dx4, p<0.005 (FIG. 26)): > 80 days | increase of survival ([10]; MDR-positive HEL9217 model, 4 doses at 10 or 30 mg/kg, p<0.025): greater than 40 days | increase of survival ([11]; MDR-positive TF1-α model, 4 doses at 10 or 30 mg/kg, p<0.025): greater than 40 days | survival ([11]; TF1-α model, SCID mice, q4dx4, p<0.005 (FIG. 26)): > 100 days | Kd ([12]; read-out: Kd (pM) for SGN-33, HEL9217 cells (MDR positive)): 144 ± 12 pM | Kd ([12]; read-out: Kd (pM) for SGN-33, HL60 cells (MDR negative)): 123 ± 16 pM | Kd ([12]; read-out: Kd (pM) for SGN-33, KG-1 cells (MDR negative)): 70 ± 20 pM | Kd ([12]; read-out: Kd (pM) for SGN-33, TF1-α cells (MDR positive)): 99 ± 22 pM
